From ChEMBL document CHEMBL1649419, “Design and synthesis of pyrimidinone and pyrimidinedione inhibitors of dipeptidyl peptidase IV” (J Med Chem, 2011)
Each block holds one compound with its values, some of them ahead of it.

Experiments:
[1] = Half life in rat liver microsomes by LC/MS analysis; assay type: ADME, Microsome
[2] = Half life in human liver microsomes by LC/MS analysis; assay type: ADME, Microsome
[3] = tested on: Macaca fascicularis; experiment: in vivo; conditions: cynomolgus monkey, iv, 0.93 mg/kg
[4] = AUC in monkey at 4.6 mg/kg, po; conditions: cynomolgus monkey, plasma
[5] = tested on: Macaca fascicularis; experiment: Half life in monkey at 4.6 mg/kg, po; conditions: cynomolgus monkey, in vivo
[6] = tested on: Macaca fascicularis; experiment: Oral bioavailability in monkey at 4.6 mg/kg, po; conditions: cynomolgus monkey, in vivo
[7] = tested on: Macaca fascicularis; experiment: Volume of distribution at steady state in monkey at 0.93 mg/kg, iv and 4.6 mg/kg, po; conditions: cynomolgus monkey, in vivo, read-out: Vdss
[8] = Half life in dog at 2.7 mg/kg, po; assay type: ADME, organism-based, Canis lupus familiaris; set-up: dose 2.7 mg/kg, route oral; conditions: in vivo
[9] = AUC in dog at 2.7 mg/kg, po; assay type: ADME, organism-based, Canis lupus familiaris; set-up: dose 2.7 mg/kg, route oral; conditions: plasma
[10] = Half life in dog at 0.90 mg/kg, iv; assay type: ADME, organism-based, Canis lupus familiaris; set-up: dose 0.9 mg/kg, route intravenous; conditions: in vivo, 0.9 mg/kg
[11] = Clearance in dog at 0.90 mg/kg, iv and 2.7 mg/kg, po; assay type: ADME, organism-based, Canis lupus familiaris; conditions: in vivo, 0.9 mg/kg
[12] = Volume of distribution at steady state in dog at 0.90 mg/kg, iv and 2.7 mg/kg, po; assay type: ADME, organism-based, Canis lupus familiaris; conditions: in vivo, 0.9 mg/kg, read-out: Vdss
[13] = Oral bioavailability in dog at 2.7 mg/kg, po; assay type: ADME, organism-based, Canis lupus familiaris; conditions: in vivo
[14] = tested on: Macaca fascicularis; experiment: Half life in monkey at 0.93 mg/kg, iv; conditions: cynomolgus monkey, in vivo
[15] = Half life in rat at 0.8 mg/kg, iv; assay type: ADME, organism-based; set-up: dose 0.8 mg/kg, route intravenous; conditions: in vivo
[16] = Half life in dog at 0.8 mg/kg, iv; assay type: ADME, organism-based, Canis lupus familiaris; set-up: dose 0.8 mg/kg, route intravenous; conditions: in vivo
[17] = Half life in rat at 11 mg/kg, po; assay type: ADME, organism-based; set-up: dose 11 mg/kg, route oral; conditions: in vivo
[18] = Half life in dog at 2.5 mg/kg, po; assay type: ADME, organism-based, Canis lupus familiaris; set-up: dose 2.5 mg/kg, route oral; conditions: in vivo
[19] = AUC in rat at 11 mg/kg, po; assay type: ADME, organism-based; set-up: dose 11 mg/kg, route oral; conditions: plasma
[20] = AUC in dog at 2.5 mg/kg, po; assay type: ADME, organism-based, Canis lupus familiaris; set-up: dose 2.5 mg/kg, route oral; conditions: plasma
[21] = Volume of distribution at steady state in rat at 0.8 mg/kg, iv and 11 mg/kg, po; assay type: ADME, organism-based; conditions: in vivo, read-out: Vdss
[22] = Volume of distribution at steady state in dog at 0.8 mg/kg, iv and 2.5 mg/kg, po; assay type: ADME, organism-based, Canis lupus familiaris; conditions: in vivo, read-out: Vdss
[23] = Oral bioavailability in rat at 11 mg/kg; assay type: ADME, organism-based; conditions: in vivo
[24] = Oral bioavailability in dog at 2.5 mg/kg; assay type: ADME, organism-based, Canis lupus familiaris; conditions: in vivo
[25] = Half life in dog at 0.85 mg/kg, iv; assay type: ADME, organism-based, Canis lupus familiaris; set-up: dose 0.85 mg/kg, route intravenous; conditions: in vivo
[26] = Volume of distribution at steady state in dog at 0.85 mg/kg, iv and 2.7 mg/kg, po; assay type: ADME, organism-based, Canis lupus familiaris; conditions: in vivo, read-out: Vdss
[27] = Oral bioavailability in dog at 2.7 mg/kg; assay type: ADME, organism-based, Canis lupus familiaris; conditions: in vivo
[28] = Half life in rat at 2 mg/kg, iv; assay type: ADME, organism-based; set-up: dose 2 mg/kg, route intravenous; conditions: in vivo
[29] = Half life in dog at 1 mg/kg, iv; assay type: ADME, organism-based, Canis lupus familiaris; set-up: dose 1 mg/kg, route intravenous; conditions: in vivo
[30] = Half life in rat at 10 mg/kg, po; assay type: ADME, organism-based; set-up: dose 10 mg/kg, route oral; conditions: in vivo
[31] = Half life in dog at 3 mg/kg, po; assay type: ADME, organism-based, Canis lupus familiaris; set-up: dose 3 mg/kg, route oral; conditions: in vivo
[32] = AUC in rat at 10 mg/kg, po; assay type: ADME, organism-based; set-up: dose 10 mg/kg, route oral; conditions: plasma
[33] = AUC in dog at 3 mg/kg, po; assay type: ADME, organism-based, Canis lupus familiaris; set-up: dose 3 mg/kg, route oral; conditions: plasma
[34] = Volume of distribution at steady state in rat at 2 mg/kg, iv and 10 mg/kg, po; assay type: ADME, organism-based; conditions: in vivo, read-out: Vdss
[35] = Volume of distribution at steady state in dog at 1 mg/kg, iv and 3 mg/kg, po; assay type: ADME, organism-based, Canis lupus familiaris; conditions: in vivo, read-out: Vdss
[36] = Oral bioavailability in rat at 10 mg/kg; assay type: ADME, organism-based; conditions: in vivo
[37] = Oral bioavailability in dog at 3 mg/kg; assay type: ADME, organism-based, Canis lupus familiaris; conditions: in vivo
[38] = Half life in monkey at 1.1 mg/kg, iv; assay type: ADME, organism-based, Macaca mulatta; set-up: dose 1.1 mg/kg, route intravenous; conditions: rhesus monkey, in vivo
[39] = Half life in monkey at 7.6 mg/kg, po; assay type: ADME, organism-based, Macaca mulatta; set-up: dose 7.6 mg/kg, route oral; conditions: rhesus monkey, in vivo
[40] = AUC in monkey at 7.6 mg/kg, po; assay type: ADME, organism-based, Macaca mulatta; set-up: dose 7.6 mg/kg, route oral; conditions: rhesus monkey, plasma
[41] = Volume of distribution at steady state in monkey at 1.1 mg/kg, iv and 7.6 mg/kg, po; assay type: ADME, organism-based, Macaca mulatta; conditions: rhesus monkey, in vivo, read-out: Vdss
[42] = Oral bioavailability in monkey at 7.6 mg/kg; assay type: ADME, organism-based, Macaca mulatta; conditions: rhesus monkey, in vivo
[43] = Half life in rat at 0.71 mg/kg, iv; assay type: ADME, organism-based; set-up: dose 0.71 mg/kg, route intravenous; conditions: in vivo
[44] = Half life in rat at 14 mg/kg, po; assay type: ADME, organism-based; set-up: dose 14 mg/kg, route oral; conditions: in vivo
[45] = AUC in rat at 14 mg/kg, po; assay type: ADME, organism-based; set-up: dose 14 mg/kg, route oral; conditions: plasma
[46] = Volume of distribution at steady state in rat at 0.71 mg/kg, iv and 14 mg/kg, po; assay type: ADME, organism-based; conditions: in vivo, read-out: Vdss
[47] = Oral bioavailability in rat at 14 mg/kg; assay type: ADME, organism-based; conditions: in vivo

- half-life [1]: 0.383 h
- half-life [2]: > 3.33 h
SMILES: Cc1nc(N2CCC[C@@H](N)C2)n(Cc2ccccc2C#N)c(=O)c1Br

- clearance [3]: 0.6 L/h/kg
- AUC [4]: 8 µg·h/mL
- half-life [5]: 6.2 h
- bioavailability [6]: 105%
- Vd [7]: 3.3 L/kg
SMILES: Cl.Cn1c(=O)cc(N2CCC[C@@H](N)C2)n(Cc2cc(F)ccc2C#N)c1=O

- half-life [1]: > 3.33 h
- half-life [2]: > 3.33 h
SMILES: CC#Cc1cnc(N2CCC[C@@H](N)C2)n(Cc2ccccc2C#N)c1=O

- half-life [1]: 1.37 h
- half-life [2]: > 3.33 h
SMILES: Cn1c(=O)cc(N2CCC[C@@H](N)C2)n(Cc2ccccc2Br)c1=O

- half-life [1]: > 3.33 h
- half-life [2]: > 3.33 h
SMILES: N#Cc1ccc(F)cc1Cn1c(N2CCC[C@@H](N)C2)ncc(F)c1=O

- half-life [8]: 4.8 h
- AUC [9]: 2.2 µg·h/mL
- half-life [10]: 1.5 h
- clearance [11]: 1.08 L/h/kg
- Vd [12]: 4.4 L/kg
- bioavailability [13]: 90%
- half-life [14]: 5.6 h
SMILES: Cn1c(=O)cc(N2CCC[C@@H](N)C2)n(Cc2cc(F)ccc2C#N)c1=O.O=C(O)C(F)(F)F

- half-life [15]: 1.3 h
- half-life [16]: 5.2 h
- half-life [17]: 1.3 h
- half-life [18]: 4.8 h
- AUC [19]: 2.8 µg·h/mL
- AUC [20]: 8.4 µg·h/mL
- Vd [21]: 3 L/kg
- Vd [22]: 1.9 L/kg
- bioavailability [23]: 65%
- bioavailability [24]: 90%
SMILES: Cl.N#Cc1ccccc1Cn1c(N2CCC[C@@H](N)C2)ncc(Cl)c1=O

- half-life [1]: 0.117 h
- half-life [2]: > 3.33 h
SMILES: CCc1cnc(N2CCC[C@@H](N)C2)n(Cc2ccccc2C#N)c1=O

- half-life [25]: 4.6 h
- half-life [8]: 4.5 h
- AUC [9]: 3.2 µg·h/mL
- Vd [26]: 3.5 L/kg
- bioavailability [27]: 80%
SMILES: Cl.N#Cc1ccccc1Cn1c(N2CCC[C@@H](N)C2)ncc(F)c1=O

- half-life [28]: 1.1 h
- half-life [29]: 5.3 h
- half-life [30]: 1.7 h
- half-life [31]: 6.1 h
- AUC [32]: 2.4 µg·h/mL
- AUC [33]: 14.7 µg·h/mL
- Vd [34]: 3.2 L/kg
- Vd [35]: 1.7 L/kg
- bioavailability [36]: 74%
- bioavailability [37]: 105%
SMILES: Cl.N#Cc1ccccc1Cn1c(N2CCC[C@@H](N)C2)ncc(Br)c1=O

- half-life [1]: 0.683 h
- half-life [2]: > 3.33 h
SMILES: N#Cc1ccc(F)cc1Cn1c(N2CCC[C@@H](N)C2)ncc(Br)c1=O

- half-life [1]: > 3.33 h
- half-life [2]: > 3.33 h
SMILES: N#Cc1ccccc1Cn1c(N2CCC[C@@H](N)C2)ncc(C#CCO)c1=O

- half-life [1]: 0.567 h
- half-life [2]: > 3.33 h
SMILES: N#Cc1ccccc1Cn1c(N2CCC[C@@H](N)C2)ncc(/C=C/c2ccccc2)c1=O

- half-life [1]: 1.57 h
- half-life [2]: > 3.33 h
- half-life [38]: 4.2 h
- half-life [39]: 5.4 h
- AUC [40]: 8.2 µg·h/mL
- Vd [41]: 4.2 L/kg
- bioavailability [42]: 112%
SMILES: N#Cc1ccccc1Cn1c(N2CCC[C@@H](N)C2)ncc(Br)c1=O

- half-life [1]: 0.983 h
- half-life [2]: 2.68 h
SMILES: N#Cc1ccccc1Cn1c(N2CCC[C@@H](N)C2)ncc(I)c1=O

- half-life [1]: 1.12 h
- half-life [2]: > 3.33 h
SMILES: Cn1c(=O)cc(N2CCC[C@@H](N)C2)n(Cc2ccc(F)cc2Cl)c1=O

- half-life [1]: 0.25 h
- half-life [2]: > 3.33 h
SMILES: N#Cc1ccsc1Cn1c(N2CCC[C@@H](N)C2)ncc(Br)c1=O

- half-life [1]: 1.18 h
- half-life [2]: 1.02 h
SMILES: N#Cc1ccccc1Cn1c(N2CCC[C@@H](N)C2)ncc(-c2cc[nH]c2)c1=O

- half-life [43]: 1.5 h
- half-life [44]: 1.5 h
- AUC [45]: 3.8 µg·h/mL
- Vd [46]: 4.2 L/kg
- bioavailability [47]: 73%
SMILES: N#Cc1ccccc1Cn1c(N2CCC[C@@H](N)C2)ncc(F)c1=O.O=C(O)C(F)(F)F

- half-life [1]: 3.33 h
- half-life [2]: 2.02 h
SMILES: Cn1c(=O)cc(N2CCC[C@@H](N)C2)n(Cc2ccccc2C#N)c1=O [ALOGLIPTIN]

- half-life [1]: 0.1 h
- half-life [2]: 1.38 h
SMILES: N#Cc1ccccc1Cn1c(N2CCC[C@@H](N)C2)nc2c(c1=O)CCCC2

- half-life [1]: 0.933 h
- half-life [2]: 2.73 h
SMILES: Cn1c(=O)c(Cl)c(N2CCC[C@@H](N)C2)n(Cc2ccccc2C#N)c1=O
